Reference: ChEMBL document CHEMBL2169844, “6β-N-heterocyclic substituted naltrexamine derivative NAP as a potential lead to develop peripheral mu opioid receptor selective antagonists” (Bioorg Med Chem Lett, 2012)
Active and inactive are the calls of the source. No cut-off for these calls is given here.

Experiments:
Mus musculus [1] = assay: Increase in gastrointestinal motility in morphine-pelleted mouse assessed as decrease in stool weight at 0.3 to 3 mg/kg, sc administered 20 mins before forced charcoal meal measured after 30 mins; type: functional, organism-based
Mus musculus [2] = assay: Toxicity in mouse assessed as high locomotory activity measured as jumping up to 50 mg/kg, iv followed by morphine at 32 mg/kg, sc; type: organism-based; conditions: in vivo
Mus musculus [3] = assay: Toxicity in mouse assessed as wet dog shakes at 50 mg/kg, iv followed by morphine at 32 mg/kg, sc; type: organism-based; conditions: in vivo
Mus musculus [4] = assay: Increase in gastrointestinal motility in morphine-pelleted mouse assessed as increase in stool weight at 0.3 to 1 mg/kg, sc administered 20 mins before forced charcoal meal measured after 30 mins; type: functional, organism-based
Mus musculus [5] = assay: Increase in gastrointestinal motility in morphine-naive mouse assessed as decrease in stool weight at 30 mg/kg, sc administered 20 mins before forced charcoal meal measured after 30 mins; type: functional, organism-based; design: dose 30 mg/kg
Mus musculus [6] = assay: Increase in gastrointestinal motility in morphine-pelleted mouse at 0.3 mg/kg, sc administered 20 mins before forced charcoal meal measured after 30 mins; type: functional, organism-based; design: dose 0.3 mg/kg
Mus musculus [7] = assay: Increase in gastrointestinal motility in morphine-pelleted mouse assessed as decrease in stool weight at 0.3 to 1 mg/kg, sc administered 20 mins before forced charcoal meal measured after 30 mins; type: functional, organism-based
Mus musculus [8] = assay: Increase in gastrointestinal motility in morphine-pelleted mouse at 1 mg/kg, sc administered 20 mins before forced charcoal meal measured after 30 mins; type: functional, organism-based; design: dose 1 mg/kg
Mus musculus [9] = species: Mus musculus; assay: Ratio of naloxone to compound for toxicity in mouse assessed as reduced wet dog shakes; type: organism-based; conditions: in vivo
Mus musculus [10] = assay: Increase in gastrointestinal motility in morphine-pelleted mouse at 3 mg/kg, sc administered 20 mins before forced charcoal meal measured after 30 mins; type: functional, organism-based; design: dose 3 mg/kg
Mus musculus [11] = assay: Increase in gastrointestinal motility in sc dosed morphine-pelleted mouse administered 20 mins before forced charcoal meal measured after 30 mins; type: functional
Mus musculus [12] = species: Mus musculus; assay: Ratio of naltrexone to compound for toxicity in mouse assessed as reduced wet dog shakes; type: organism-based; conditions: in vivo
Mus musculus [13] = assay: Ratio of ED50 for MNTX to compound ED50 for morphine-pelleted mouse administered 20 mins before forced charcoal meal measured after 30 mins; type: functional
Mus musculus [14] = assay: Increase in gastrointestinal motility in morphine-pelleted mouse at 0.003 to 0.03 mg/kg, sc administered 20 mins before forced charcoal meal measured after 30 mins; type: functional, organism-based
Mus musculus [15] = assay: Increase in gastrointestinal motility in morphine-naive mouse assessed as decrease in stool weight at 3 mg/kg, sc administered 20 mins before forced charcoal meal measured after 30 mins; type: functional, organism-based; design: dose 3 mg/kg
Mus musculus [16] = assay: Toxicity in morphine-pelleted mouse assessed as diarrhea at 0.3 mg/kg, sc; type: organism-based; design: dose 0.3 mg/kg, route subcutaneous; conditions: in vivo
[17] = molecular target: Mu-type opioid receptor (Rattus norvegicus) (UniProt P33535); assay: Partial agonist activity at mu opioid receptor in rat thalamus assessed as stimulation of [35S]-GTP[gammaS]-binding relative to DAMGO; type: functional, tissue-based
Sequence of Mu-type opioid receptor (Rattus norvegicus) (P33535 whole entry): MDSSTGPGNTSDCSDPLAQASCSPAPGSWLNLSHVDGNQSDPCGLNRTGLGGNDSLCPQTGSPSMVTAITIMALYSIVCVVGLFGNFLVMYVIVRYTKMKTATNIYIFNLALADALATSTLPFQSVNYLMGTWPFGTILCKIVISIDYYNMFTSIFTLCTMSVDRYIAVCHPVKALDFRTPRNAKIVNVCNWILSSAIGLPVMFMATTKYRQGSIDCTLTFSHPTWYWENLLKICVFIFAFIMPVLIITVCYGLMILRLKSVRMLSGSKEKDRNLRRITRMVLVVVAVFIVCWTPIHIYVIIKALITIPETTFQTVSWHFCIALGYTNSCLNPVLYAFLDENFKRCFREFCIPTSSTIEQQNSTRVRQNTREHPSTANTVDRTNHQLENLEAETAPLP

Mus musculus [18] = assay: Toxicity in mouse assessed as lower locomotory activity measured as walking at 32 mg/kg, iv followed by morphine at 32 mg/kg, sc; type: organism-based; conditions: in vivo
Mus musculus [19] = assay: Increase in gastrointestinal motility in morphine-naive mouse assessed as decrease in stool weight at 0.3 mg/kg, sc administered 20 mins before forced charcoal meal measured after 30 mins; type: functional, organism-based; design: dose 0.3 mg/kg
Mus musculus [20] = species: Mus musculus; assay: Ratio of ED50 for increase in gastrointestinal motility in morphine-pelleted mouse to ED50 for toxicity in mouse assessed as lower locomotory activity; type: functional

## O=C(N[C@@H]1CC[C@@]2(O)[C@H]3Cc4ccc(O)c5c4[C@@]2(CCN3CC2CC2)[C@H]1O5)c1ccncc1
Mus musculus [1]
  Activity: inactive
Mus musculus [2]
  Activity: Toxic
Mus musculus [3]
  Activity: Toxic
Mus musculus [4]
  Activity: inactive
Mus musculus [5]
  Activity: inactive
Mus musculus [6]
  Activity: Active
Mus musculus [7]
  Activity: Active
Mus musculus [8]
  Activity: Active
Mus musculus [9]
  Ratio: 50
Mus musculus [10]
  Activity: Active
Mus musculus [11]
  ED50: 0.0088 mg/kg
Mus musculus [12]
  Ratio: 50
Mus musculus [13]
  Ratio ED50: 300
Mus musculus [14]
  Activity: inactive
Mus musculus [15]
  Activity: Active
Mus musculus [16]
  Activity: Toxic
[17]
  Emax: 16.7%
Mus musculus [18]
  Activity: Toxic
Mus musculus [19]
  Activity: inactive
Mus musculus [20]
  Ratio ED50: >3600

## C[N+]1(CC2CC2)CC[C@]23c4c5ccc(O)c4O[C@H]2C(=O)CC[C@@]3(O)[C@H]1C5 (stereo partly specified) [METHYLNALTREXONE]
Mus musculus [11]
  ED50: 2.5 mg/kg
